Key:
[1] = tested on: mouse model of human hypertrophic cardiomyopathy; conditions: oral NAC treatment; cited from earlier work
[2] = tested on: cardiomyopathic mice with missense LMNA mutation; conditions: oral NAC treatment; cited from earlier work
[3] = tested on: postoperative atrial fibrillation; conditions: cited from earlier work
[4] = tested on: heart-failing hypertensive rats; conditions: oral NAC treatment; cited from earlier work
[5] = tested on: cardiomyopathic mice with missense LMNA mutation; assay: Mouse model carrying a missense LMNA mutation and developing a dilated cardiomyopathy; format: in vivo; conditions: oral treatment, mouse model with missense LMNA mutation

CC(=O)N[C@@H](CS)C(=O)O [NAC, N-acetylcysteine]
established hypertrophy [1]: reverses established hypertrophy | cardiac structure and function [2]: improves cardiac structure and function | incidence of postoperative atrial fibrillation (AF) ([3]; intravenous infusion for 1 h before and 48 h after cardiac surgery, Ozaydin et al. 2008): decreased the incidence of postoperative atrial fibrillation | post-operative atrial fibrillation ([3]; oral NAC treatment, patients): prevents post-operative atrial fibrillation | cardiac structure and function [4]: improves cardiac structure and function | heart structure and function [5]: significantly improved heart structure and function
